Assay results taken from patent publication US8518956B2, “1-(1-(2-ethoxyethyl)-3-ethyl-7-(4-methylpyridin-2-ylamino)-1H-pyrazolo[4,3-d]pyrimidin-5-yl) piperidine-4-carboxylic acid and salts thereof” (priority 2005, dated 2013).

What was measured:
Format in all cases: biochemical
[1] = target: T1, PDE5 enzyme (Homo sapiens, UniProt O76074); assay: Method 1: Human Platelet PDE5 Enzyme Inhibition Scintillation Proximity Assay; conditions: METHOD 1: PDE5 IC50, Table B, WO2004096810 examples
T1 construct: The PDE5 enzyme isolated from human platelets; from tissue; host or cells: human platelets
In short: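 Human platelet PDE5 hydrolysing 500 nM cGMP (3:1 unlabelled:[3H]) in Tris-HCl pH 7.4 with MgCl2 and BSA, 60 min at 30 °C. Reaction stopped with yttrium silicate SPA beads and [3H]GMP counted by scintillation. IC50 from sigmoid curves over a 10-point half-log dilution series, in duplicate.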

[2] = target: PDE6 enzyme; assay: Method 2A: Alternative Human Retina PDE6 Enzyme Inhibition Scintillation Proximity Assay (SPA); conditions: Table F, WO2004096810 examples
Protocol: Lift the retina with care and locate the optic nerve. Cut through the optic nerve and transfer the retina to a small dish containing a few ml of homogenisation buffer. Gently float the retina out on the surface of the buffer and remove any obvious pigmented material from the iris. Place the retina in a second dish with clean buffer to remove last traces of pigment and then transfer to a 50 ml Corning Costar centrifuge tube (Sigma) and keep on ice. • PDE6 Isolation and Purification from Retina: Allow 2 mls of the homogenisation buffer per bovine retina and 1 ml per retina for dog and human. Homogenise using hand-held homogeniser 3×5 second bursts cooling on ice between each burst. Filter homogenate through two layers of surgical gauze. Spin at 100,000 g for 60 minutes at 4° C. […] Run through FPLC (Pharmacia FPLC LKB/FRAC-100, Pharmacia) or aliquot and store in liquid nitrogen as needed. Method 2A: Alternative Human Retina PDE6 Enzyme Inhibition Scintillation Proximity Assay (SPA)
The inhibition of PDE6 enzyme activity by a test compound also can be measured in accordance with the in vitro assay of Method 1A, but instead using semi-purified PDE6 enzyme isolated from human, bovine or canine retina in place of PDE5 enzyme. […] [3H]GMP binds to yttrium silicate SPA beads and is detected by scintillation counting.

[3] = target: T2, PDE11 enzyme (Homo sapiens, UniProt Q9HCR9, DUP921-921); assay: Method 3A: Alternative Human Recombinant PDE11 Enzyme Inhibition Scintillation Proximity Assay (SPA); conditions: Table F, WO2004096810 examples
T2 construct: FLAG (N); made in house; host or cells: Sf9 insect cells (baculovirus, pFastBac)
T2 sequence (Q9HCR9 with tags, fused parts or gaps DUP921-921 limits assumed): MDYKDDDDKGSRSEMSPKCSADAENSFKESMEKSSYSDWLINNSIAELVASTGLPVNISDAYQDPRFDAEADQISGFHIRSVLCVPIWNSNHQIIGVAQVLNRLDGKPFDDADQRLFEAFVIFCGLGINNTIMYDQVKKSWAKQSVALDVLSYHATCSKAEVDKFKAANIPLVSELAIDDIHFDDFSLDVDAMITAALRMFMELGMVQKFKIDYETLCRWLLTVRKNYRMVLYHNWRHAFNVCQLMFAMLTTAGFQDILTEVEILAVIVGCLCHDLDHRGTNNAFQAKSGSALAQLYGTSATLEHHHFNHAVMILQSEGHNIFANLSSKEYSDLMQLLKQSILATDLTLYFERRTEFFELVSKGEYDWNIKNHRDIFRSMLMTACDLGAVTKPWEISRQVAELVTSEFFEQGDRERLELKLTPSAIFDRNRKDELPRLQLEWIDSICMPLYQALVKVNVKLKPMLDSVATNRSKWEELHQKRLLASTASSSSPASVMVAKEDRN
Protocol: Incubate at 27° C. with 220 rpm shaking for 48 hours. Harvest the infected cells by pelleting at 2000 rpm for 10 minutes at 4° C. Store the infected cell pellet at −80° C. until ready for purification. Resuspend the thawed cell pellets to 1×10^7 cells/ml (=20 ml buffer consisting of 20 mM Hepes (pH7.2), 1 mM EDTA, 20 mM sucrose, 150 mM NaCl and protease inhibitor tablets). Mix thoroughly and allow to stand on ice for 10 minutes. Sonicate for 5×5 seconds, on ice. Spin the mixture at 12,000 rpm for 10 minutes at 4° C. in SS34. Store the insoluble pellet at −80° C., and proceed to the purification of the soluble material. • (b) Purification: Prepare the column (1.0 cm diameter, Kontes) by rinsing the empty column twice with TBS. Then mix beads (Anti-FLAG M2 Agarose, Sigma) with TBS and add to the column—allow the beads to settle. Wash the column with 3 column volumes of 0.1M glycine (pH3.5). […] Apply the extract to the column and allow the extract to enter by gravity flow. Reapply the flow-through. Wash the column with 15 column volumes of TBS. Elute the protein with 5×1 ml aliquots of FLAG peptide (Sigma) (i.e., 100 ug/ml in TBS). Elute the remaining protein with 1 ml 0.1M glycine, and immediately add 25 ul 1M Tris pH8 to neutralize. Method 3A: Alternative Human Recombinant PDE11 Enzyme Inhibition Scintillation Proximity Assay (SPA)

Row | Compound | IC50 [1] [µM] | IC50 [2] [µM] | IC50 [3] [µM]
1 | CCc1nn(CCOCC(F)(F)F)c2c(Nc3cc(C)ncn3)nc(N3CCC(C(=O)O)CC3)nc12 [WO2004096810 Example 263] | 0.00027 | 0.0306 | 0.384
2 | Cc1ccnc(Nc2nc(N3CCC(C(=O)O)CC3)nc3c(C)nn(CCOCC(F)(F)F)c23)c1 [WO2004096810 Example 261] | 0.00057 | 0.11 | 0.585
3 | Cc1cc(Nc2nc(N3CCC(C(=O)O)CC3)nc3c(C)nn(CCOCC(F)(F)F)c23)ncn1 [WO2004096810 Example 262] | 0.00093 | 0.0663 | 0.608
